Experimental data taken from article PMC12122562, “Phase 1 studies of the indenoisoquinolines LMP776 and LMP744 in patients with solid tumors and lymphomas” (Cancer Chemotherapy and Pharmacology, 2025).
Entries after “also recorded” stand apart in the source; their conditions may differ.

System: patients with advanced, refractory solid tumors or lymphomas
Assay: Phase 1 trial of LMP776 (NCT01051635): safety, MTD, adverse events (CTCAE v4.0)
Type: in vivo
Source text: The primary objectives of each study included establishing safety, tolerability, MTD, and recommended phase 2 dose (RP2D) of LMP776 and LMP744 as single agents. The LMP744 study included evaluation of tumor pharmacodynamics as an exploratory objective. Both trials were opened at the National Cancer Institute’s (NCI) Developmental Therapeutics Clinic, and the LMP744 trial was also opened at the University of Pittsburgh Hillman Cancer Center. Both trials used an accelerated dose escalation designs (Simon design 4 for LMP776, Simon design 3 for LMP744) to determine the MTD [30]. Dose levels are listed in Supplementary Table 1. Once the MTD was determined, additional patients were enrolled at that DL in an expansion cohort to evaluate pharmacodynamic changes as described below. LMP776 and LMP744 were administered intravenously through a central line via a 1-h infusion on days 1–5 (QDx5) in 28-day cycles. Both agents were supplied by the NCI Division of Cancer Treatment and Diagnosis (DCTD). The studies were approved by the NIH Institutional Review Board and conducted in accordance with the Declaration of Helsinki.
Patients were enrolled in either NCT01051635 evaluating LMP776 or NCT03030417 evaluating LMP744; these trials were conducted sequentially. Both trials required that patients be ≥ 18 years of age with solid tumors or lymphomas refractory to other treatments. Patients were required to have adequate performance status (Eastern Cooperative Oncology Group [ECOG] performance status ≤ 2), bone marrow function, and organ function as described in the Supplementary Methods. Patients in expansion phases at the MTD were required to have disease amenable to biopsy collection and be willing to undergo research biopsies. All patients provided written informed consent.
Tumor responses were evaluated by serial CT scans according to RECIST v1.1 criteria. CT scans were performed every other cycle during the first year, then every 3 cycles after the first year. […] Criteria for all versions can be found at https://ctep.cancer.gov/protocolDevelopment/electronic_applications/ctc.htm. Any patient who received a dose of either agent was considered eligible for toxicity evaluation.

[1] = all DLs, highest grade per patient
[2] = grade 2, DL1-DL2 (n = 8; suppl. DL2, n=7)

## COc1cc2c3c(n(CCCn4ccnc4)c(=O)c2cc1OC)-c1cc2c(cc1C3=O)OCO2 [LMP776]
DL8 (16 mg/m^2/day), one patient each
  Grade 3 non-hematologic toxicities: hypokalemia, hyponatremia, and hypophosphatemia
IV QDx5, 28-day cycles (DL7)
  Maximum tolerated dose (MTD): 12 mg/m^2/day
Across all DLs
  Anemia, grade ≥ 2, prevalence: 50%
  Lymphopenia, grade ≥ 2, prevalence: 38%
  Thrombocytopenia, grade ≥ 2, prevalence: 18%
All DLs
  Alkaline phosphatase increased, grade ≥ 2, Total (%): 1 (3)
  Aspartate aminotransferase increased, grade ≥ 2, Total (%): 2 (6)
  Dehydration, grade ≥ 2, Total (%): 2 (6)
  Diarrhea, grade ≥ 2, Total (%): 1 (3)
  Dysgeusia, grade ≥ 2, Total (%): 2 (6)
  Fatigue, grade ≥ 2, Total (%): 3 (9)
  Hypercalcemia, grade ≥ 2, Total (%): 1 (3)
  Hypoalbuminemia, grade ≥ 2, Total (%): 3 (9)
  Hypoglycemia, grade ≥ 2, Total (%): 1 (3)
  Hypokalemia, grade ≥ 2, Total (%): 1 (3)
  Hypomagnesemia, grade ≥ 2, Total (%): 1 (3)
  Hyponatremia, grade ≥ 2, Total (%): 2 (6)
  Hypothyroidism, grade ≥ 2, Total (%): 1 (3)
  Mucositis - oral, grade ≥ 2, Total (%): 1 (3)
  Nausea, grade ≥ 2, Total (%): 2 (6)
  Vomiting, grade ≥ 2, Total (%): 1 (3)
  White blood cell decreased, grade ≥ 2, Total (%): 3 (9)
[1]
  Anemia, grade ≥ 2, Total (%): 17 (50)
  Hypophosphatemia, grade ≥ 2, Total (%): 4 (12)
  Lymphopenia (Lymphocyte count decreased), grade ≥ 2, Total (%): 13 (38)
  Neutropenia, grade ≥ 2, Total (%): 5 (15)
  Thrombocytopenia (Platelet count decreased), grade ≥ 2, Total (%): 6 (18)
Enrolled at DL8
  Patients requiring a dose reduction: One
[2]
  Anemia, patients: 5
  Hypophosphatemia, patients: 1
  Lymphopenia (Lymphocyte count decreased), patients: 2
Grade 2, DL2
  Hypoalbuminemia, patients: 1
Grade 2, DL3-DL4
  Lymphopenia (Lymphocyte count decreased), patients: 1
Grade 2, DL3-DL4 (n = 6)
  Anemia, patients: 2
Grade 2, DL5-DL6
  Dehydration, patients: 1
  Diarrhea, patients: 1
  Fatigue, patients: 1
  Neutropenia, patients: 1
Grade 2, DL5-DL6 (n = 6)
  Anemia, patients: 3
Grade 2, DL7
  Aspartate aminotransferase increased, patients: 1
  Hypophosphatemia, patients: 1
Grade 2, DL7 (n = 7)
  Anemia, patients: 1
Grade 2, DL8
  Aspartate aminotransferase increased, patients: 1
  Dehydration, patients: 1
  Dysgeusia, patients: 2
  Fatigue, patients: 2
  Hypoalbuminemia, patients: 2
  Hypomagnesemia, patients: 1
  Hypophosphatemia, patients: 1
  Hypothyroidism, patients: 1
  Nausea, patients: 2
  Neutropenia, patients: 1
  Thrombocytopenia (Platelet count decreased), patients: 1
  Vomiting, patients: 1
  White blood cell decreased, patients: 1
Grade 2, all DLs (n=34)
  Anemia, patients: 11
  Aspartate aminotransferase increased, patients: 2
  Dehydration, patients: 2
  Diarrhea, patients: 1
  Dysgeusia, patients: 2
  Fatigue, patients: 3
  Hypercalcemia, patients: 1
  Hypoalbuminemia, patients: 3
  Hypomagnesemia, patients: 1
  Hyponatremia, patients: 2
  Hypophosphatemia, patients: 3
  Hypothyroidism, patients: 1
  Lymphocyte count decreased, patients: 3
  Nausea, patients: 2
  Neutropenia, patients: 2
  Platelet count decreased, patients: 1
  Vomiting, patients: 1
  White blood cell count decreased, patients: 1
Grade 3, DL2
  Hypoglycemia, patients: 1
Grade 3, DL3-DL4
  Lymphopenia (Lymphocyte count decreased), patients: 2
Grade 3, DL3-DL4 (n = 6)
  Anemia, patients: 1
Grade 3, DL5-DL6
  Lymphopenia (Lymphocyte count decreased), patients: 1
Grade 3, DL7
  Alkaline phosphatase increased, patients: 1
  Hyponatremia, patients: 1
  Lymphopenia (Lymphocyte count decreased), patients: 2
  Mucositis - oral, patients: 1
  Thrombocytopenia (Platelet count decreased), patients: 1
Grade 3, DL7 (n = 7)
  Anemia, patients: 1
Grade 3, DL8
  Hypokalemia, patients: 1
  Hyponatremia, patients: 1
  Hypophosphatemia, patients: 1
  Lymphopenia (Lymphocyte count decreased), patients: 3
  Neutropenia, patients: 2
  Thrombocytopenia (Platelet count decreased), patients: 3
  White blood cell decreased, patients: 1
Grade 3, DL8 (n = 7)
  Anemia, patients: 4
Grade 3, all DLs (n=34)
  Alkaline phosphatase increased, patients: 1
  Anemia, patients: 6
  Hypoglycemia, patients: 1
  Hypokalemia, patients: 1
  Lymphocyte count decreased, patients: 8
  Mucositis - oral, patients: 1
  Neutropenia, patients: 2
  Platelet count decreased, patients: 3
  White blood cell count decreased, patients: 1
Grade 4, DL2
  Hypercalcemia, patients: 1
Grade 4, DL8
  Lymphopenia (Lymphocyte count decreased), patients: 2
  Neutropenia, patients: 1
  Thrombocytopenia (Platelet count decreased), patients: 1
  White blood cell decreased, patients: 1
Grade 4, all DLs (n=34)
  Lymphocyte count decreased, patients: 2
  Neutropenia, patients: 1
  Platelet count decreased, patients: 1
  White blood cell count decreased, patients: 1
In vivo
  Dose-limiting toxicities (DLTs): hypercalcemia, anemia, and hyponatremia; also recorded: Hypercalcemia and hyponatremia were dose-limiting
  Nausea, prevalence: 6%
